“Also recorded” adds a separate entry of the source.
What was measured:
NEP [1] = assay: NEP immunohistochemistry of brain sections after intracranial Aβ42 injection; assay type: in vivo; details: single intracranial injection of 1 μl aggregated Aβ42 (350 μM); SwAPP and wild-type mice; 11 and 20 weeks after injection; vs PBS
Protocol: (§1) Animals: Transgenic mice expressing the AD-causing Swedish double mutant of the human APP gene were generated and bred as described previously (Hsiao K. K. et al., Neuron 15, 1203-1218, 1995; Hsiao K. et al., Science 274, 99-102, 1996). All mice used in this study were the progeny of a single SwAPP male, crossbred to wild-type littermates. The colony was housed under a light cycle of 12 hours with dry food and water ad libitum. The presence of the transgene was determined by PCR on genomic DNA isolated from tail biopsies using specific primers GTGGATAACCCCTCCCCCAGCCTAGACCA and CTGACCACTCGACCAGGTTCTGGGT to the transgene. […] After the injection, the needle was left in place for 1 more minute, and then was slowly withdrawn over a period of 1 minute.
Preparation of tissue: For combined Western blot analyses and immunohistochemistry, mice were deeply anesthetized and were perfused transcardially using ice-cold PBS (pH 7.4). […]
In contrast, in SwAPP mice as well as in wild-type littermates injected with PBS vehicle alone, neuronal NEP staining was weak and diffuse (FIG. 2 a-c, g-i). […] To confirm this finding, we next analysed brain proteins prepared from Aβ42-injected mice extracts by Western blotting.

NEP [2] = assay: Western blot and densitometry of NEP in brain extracts after Aβ42 injection; assay type: in vivo; details: as early as one week after Aβ42 injection; SwAPP and wild-type mice; vs uninjected or PBS-injected
Protocol: Actin was used to control for equal loading (a). […] The intensity of each NEP and actin bands was measured using the NIH-Image software. […] Data represent means of each group+SEM * p≦0.05, ** p≦0.01, Mann-Whitney U test. n=3 for each group.
All mice used in this study were the progeny of a single SwAPP male, crossbred to wild-type littermates. The colony was housed under a light cycle of 12 hours with dry food and water ad libitum. […] After the injection, the needle was left in place for 1 more minute, and then was slowly withdrawn over a period of 1 minute.
Western-blot analysis: Protein concentration of brain extracts were determined with the Bredford protein assay and equal amounts of protein (60 μg) were loaded to each lane of 8% acrylamid gels in Laemmli buffer. After electrophoresis proteins were blotted on nitrocellulose membranes (Amersham). Membranes were probed for NEP using the monoclonal antibody 56C6 at a dilution of 1:50. […]

transgenic SwAPP mice [3] = assay: Brain amyloid plaque staining and counts (thioflavin S, 4G8) in SwAPP mice; assay type: in vivo
Protocol: as §1, with “minute. […]” for “minute.”
(§2) To be sure that no amyloid plaques were missed in the mice, every 50th coronal section (250 μm apart) of all mice was stained, beginning with a random section of the olfactory bulbs. […] Existing plaques in 3 representative sections of each mouse were counted. […] To determine whether the reduced amyloid pathology was associated with reduced concentrations of transgenic Aβ, human Aβ was measured by a sandwich ELISA that specifically recognized intact human Aβ (Nitsch, R. M. et al., Ann. Neurol. in Press). As expected, no human Aβ was detected by ELISA in wild-type mice.

human Aβ = assay: Aβ sandwich ELISA on formic acid extracted brain tissue; assay type: in vivo; details: SwAPP mice, 20 weeks after injection, n=4; vs untreated SwAPP littermates; p≦0.05
Protocol: (§3) Preparation of tissue: For combined Western blot analyses and immunohistochemistry, mice were deeply anesthetized and were perfused transcardially using ice-cold PBS (pH 7.4). Frontal cortices of both hemispheres were homogenized in lysis buffer containing 1% Triton X-100, 10 mM Tris, 250 mM sucrose, and 1× complete proteinase inhibitor cocktail, pH=8 (Roche, Switzerland). The remaining brain tissue was fixed over night in 4% paraformaldehyde solution at 4° C. and washed several times in PBS and embedded in paraffin for immuno-histochemistry. For combined immunocytochemistry and Aβ-ELISA, mice were perfused with 4% paraformaldehyde and postfixed in the same solution over night. […]
Aβ-ELISA: For quantitation of Aβ content in mouse brain, protein extracts of fixed brain tissue reaching from the stereotaxic coordinates intraaural 1 to intraaural −2 were prepared. […] 150 μl diluted samples or standards (Aβ40 Bachem) were incubated overnight, washed, and detected with biotinylated monoclonal mouse antibody 6H1 directed against amino acids 1-17 of human Aβ (Evotec Neurosciences GmbH) incubated at a concentration of 1 μg/ml in blocking buffer for 2 hours at 37° C., and visualised with a peroxidase reaction using tetramethylbenzidine as substrate, and detection at 450 nm. […]

transgenic SwAPP mice [4] = assay: GFAP staining of reactive astrocytes (astrogliosis); assay type: in vivo
Protocol: Preparation of tissue: For combined Western blot analyses and immunohistochemistry, mice were deeply anesthetized and were perfused transcardially using ice-cold PBS (pH 7.4). Frontal cortices of both hemispheres were homogenized in lysis buffer containing 1% Triton X-100, 10 mM Tris, 250 mM sucrose, and 1× complete proteinase inhibitor cocktail, pH=8 (Roche, Switzerland). The remaining brain tissue was fixed over night in 4% paraformaldehyde solution at 4° C. and washed several times in PBS and embedded in paraffin for immuno-histochemistry. For combined immunocytochemistry and Aβ-ELISA, mice were perfused with 4% paraformaldehyde and postfixed in the same solution over night. The caudal parts of the brains reaching from intraaural 1 to intraaural −2 (Franklin, K. B. J, Paxinos, G. Academic Press, 1997) were dissected and prepared for Aβ ELISA. The remaining brain tissue was embedded in paraffin and then processed for immunohistochemistry. Five μm thick paraffin sections were probed with antibodies against NEP, IDE (Insulin degrading enzyme), ACE (Angiotensin converting enzyme), endopeptidase 24.15 protein, and GFAP (glial fibrillary protein) according to providers' protocols and counterstained with nuclear fast red (Fluka, Switzerland).
Prevention of amyloid formation was accompanied by reduced reactive astrocytosis: Because brain amyloidosis in SwAPP mice is accompanied by reactive astrocytosis, GFAP-reactive astrocytes were analysed in response to the Aβ42-injection protocol (FIG. 6 a-c). […] Similar activation of astrocytes in brain regions unaffected by amyloid plaque formation is a well established finding in transgenic mice that overexpress disease-causing APP mutants (Schenk D. et al., Nature 400, 173-177, 1999). It may be explained by high sensitivity of hippocampal astrocytes to unknown toxic activities related to the expression of the SwAPP transgene; these may well be independent of amyloid plaque formation.

[5] = test system: insulin-degrading enzyme (IDE); assay: IDE brain tissue levels by immunohistochemistry and Western blotting; assay type: in vivo, mice; details: in response to Aβ42 injections
Protocol: as §3
(§4) Western-blot analysis: Protein concentration of brain extracts were determined with the Bredford protein assay and equal amounts of protein (60 μg) were loaded to each lane of 8% acrylamid gels in Laemmli buffer. […]
(§5) Role of other Aβ degrading enzymes: To determine whether other Aβ-degrading proteases were involved in preventing amyloid formation in the above described mice, brain tissue levels of insulin-degrading enzyme (IDE), a 100 kD Zn-metallo-proteinase that is a major Aβ-degrading enzyme in tissue culture (Qiu W. Q. et al., J. Biol. Chem. 273, 32730-32738, 1998; Vekrellis K. et al., J. Neurosci., 20, 1657-1665, 2000) were analysed by immunohistochemistry and Western blotting. […]

metalloprotease 24.15 = assay: Metalloprotease 24.15 brain levels; assay type: in vivo, mice; details: in response to Aβ injections
Protocol: as §3, §4, §5

[6] = test system: angiotensin converting enzyme (ACE); assay: ACE brain tissue levels; assay type: in vivo; details: treated vs untreated mice, any examined time point after Aβ42 injection
Protocol: as §3, §4, §5

APP = APP levels by Western blots of protein extracts; assay type: in vivo; details: Aβ42- or vehicle treated, or untreated transgenic mice
Protocol: Western-blot analysis: Protein concentration of brain extracts were determined with the Bredford protein assay and equal amounts of protein (60 μg) were loaded to each lane of 8% acrylamid gels in Laemmli buffer. After electrophoresis proteins were blotted on nitrocellulose membranes (Amersham). Membranes were probed for NEP using the monoclonal antibody 56C6 at a dilution of 1:50. Blots were stripped in a buffer containing 2% SDS, 62.5 mM Tris (pH 6.8) and 100 mM β-mercaptoethanol at 50° C. for 30 minutes. After stripping the membrane were probed sequentially with anti-Alzheimer precursor protein A4 antibody (clone 22C11, 1:1000), IDE-1 (1:800), ACE (1:200), and the polyclonal antibody to 24.15 protein (1:600). Finally, staining for actin (1:1000) was performed as a loading control. […]
as §2

PDAPP transgenic mouse = details: cited from earlier work
NL-1 (neprilysin like 1) = molecular target: T1, NL-1 (neprilysin like 1) (Mus musculus, UniProt Q9JLI3); details: cited from earlier work
T1 sequence (Q9JLI3 63-765): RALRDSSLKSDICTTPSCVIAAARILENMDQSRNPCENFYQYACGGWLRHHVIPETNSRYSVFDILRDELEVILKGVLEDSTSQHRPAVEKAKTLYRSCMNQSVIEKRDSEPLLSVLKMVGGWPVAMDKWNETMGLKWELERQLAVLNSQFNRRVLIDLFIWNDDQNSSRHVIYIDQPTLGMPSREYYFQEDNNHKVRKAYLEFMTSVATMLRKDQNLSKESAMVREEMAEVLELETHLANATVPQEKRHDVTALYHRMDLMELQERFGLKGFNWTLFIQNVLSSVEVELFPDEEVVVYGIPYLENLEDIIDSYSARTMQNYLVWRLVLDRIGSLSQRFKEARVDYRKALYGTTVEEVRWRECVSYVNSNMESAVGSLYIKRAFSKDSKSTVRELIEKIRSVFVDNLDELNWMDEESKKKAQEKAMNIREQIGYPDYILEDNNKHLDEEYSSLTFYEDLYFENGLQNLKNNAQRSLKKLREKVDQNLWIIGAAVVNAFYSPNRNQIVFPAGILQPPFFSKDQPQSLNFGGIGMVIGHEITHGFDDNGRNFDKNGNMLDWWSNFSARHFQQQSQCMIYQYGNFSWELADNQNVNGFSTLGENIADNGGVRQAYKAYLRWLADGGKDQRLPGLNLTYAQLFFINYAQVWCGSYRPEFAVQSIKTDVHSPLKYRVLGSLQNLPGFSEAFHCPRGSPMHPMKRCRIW

Compound | neuronal NEP immunoreactivity (NEP [1]) | NEP protein levels in brain extracts (Western blot) (NEP [2]) | thioflavin S- or 4G8-positive amyloid plaques (transgenic SwAPP mice [3]; SwAPP mice at 31 weeks of age, 20 weeks after single injection (4/4), vs untreated SwAPP mice) | plaque counts of 4G8 stained amyloid plaques (transgenic SwAPP mice [3]; SwAPP mice, 20 weeks after injection, vs untreated littermates, p≦0.05) | brain Aβ levels (ELISA, formic acid extracted total Aβ) (human Aβ) | GFAP-positive astrocytes in hippocampi (transgenic SwAPP mice [4]; Aβ42-treated SwAPP mice) | amyloid plaque-associated clusters of GFAP-positive cells (transgenic SwAPP mice [4]; SwAPP mice after Aβ42 injections) | GFAP staining of reactive astrocytes in cerebral cortices (transgenic SwAPP mice [4]; SwAPP mice, 20 weeks after injection, vs untreated SwAPP littermates) | tissue levels of IDE [5] | metalloprotease 24.15 levels (metalloprotease 24.15) | ACE levels [6] | APP levels (APP) | β-amyloid-plaque formation, neuritic dystrophy and astrogliosis (PDAPP transgenic mouse; immunisation of young animals (6 weeks of age)) | extent and progression of AD-like neuropathologies (PDAPP transgenic mouse; treatment of older animals (11 months)) | inhibition of NL-1 (NL-1 (neprilysin like 1))
Aβ42: Fibrillar aggregated synthetic Aβ42 prepared by resuspending lyophilized Aβ42 (Bachem) in PBS, pH 7.4 by shaking for 48 hours at 37° C. | increased | significant increase; also recorded: significantly higher | significant reduction; also recorded: completely free | significantly reduced; also recorded: marked significant decrease | significantly reduced; also recorded: untreated control SwAPP mice (n=4) were significantly higher than in Aβ42-treated SwAPP mice | abundant | completely absent | significantly lower | no differences | unchanged | did not differ | no difference | essentially prevented | markedly reduced | 
CC(C)C[C@H](NP(=O)(O)O[C@@H]1O[C@@H](C)[C@H](O)[C@@H](O)[C@H]1O)C(=O)N[C@@H](Cc1c[nH]c2ccccc12)C(=O)O [phosphoramidon] |  |  |  |  |  |  |  |  |  |  |  |  |  |  | efficiently inhibited
